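Interpolation was linear, between the two tested concentrations surrounding the appropriate level; five concentrations were tested over 48 hours in 96-well plates. TGI: concentration producing complete growth inhibition.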
Columns and labels:
Experiment in all cases: NCI anticancer screen, dose series, 48 h
786-0 renal = tested on: 786-0 renal
A498 renal = tested on: A498 renal
A549 NSCLC = tested on: A549 NSCLC
ACHN renal = tested on: ACHN renal
BT-549 breast = tested on: BT-549 breast
CAKI-1 renal = tested on: CAKI-1 renal
CCRF-CEM leukemia = tested on: CCRF-CEM leukemia
COLO 205 colon = tested on: COLO 205 colon
DU-145 prostate = tested on: DU-145 prostate
EKVX NSCLC = tested on: EKVX NSCLC
HCC-2998 colon = tested on: HCC-2998 colon
HCT-116 colon = tested on: HCT-116 colon
HCT-15 colon = tested on: HCT-15 colon
HL-60(TB) leukemia = tested on: HL-60(TB) leukemia
HOP-62 NSCLC = tested on: HOP-62 NSCLC
HOP-92 NSCLC = tested on: HOP-92 NSCLC
HS 578T breast = tested on: HS 578T breast
HT29 colon = tested on: HT29 colon
IGROV1 ovarian = tested on: IGROV1 ovarian
K-562 leukemia = tested on: K-562 leukemia
KM12 colon = tested on: KM12 colon
LOX IMVI melanoma = tested on: LOX IMVI melanoma
M14 melanoma = tested on: M14 melanoma
MALME-3M melanoma = tested on: MALME-3M melanoma
MCF7 breast = tested on: MCF7 breast
MDA-MB-231 breast = tested on: MDA-MB-231 breast
MDA-MB-435 = tested on: MDA-MB-435
MDA-N = tested on: MDA-N
MOLT-4 leukemia = tested on: MOLT-4 leukemia
NCI-H226 lung = tested on: NCI-H226 lung
NCI-H23 lung = tested on: NCI-H23 lung
NCI-H460 lung = tested on: NCI-H460 lung
NCI-H522 lung = tested on: NCI-H522 lung
NCI/ADR-RES ovarian = tested on: NCI/ADR-RES ovarian
OVCAR-3 ovarian = tested on: OVCAR-3 ovarian
OVCAR-4 ovarian = tested on: OVCAR-4 ovarian
OVCAR-5 ovarian = tested on: OVCAR-5 ovarian
OVCAR-8 ovarian = tested on: OVCAR-8 ovarian
PC-3 prostate = tested on: PC-3 prostate
RPMI-8226 leukemia = tested on: RPMI-8226 leukemia
RXF 393 renal = tested on: RXF 393 renal
SF-268 CNS = tested on: SF-268 CNS
SF-295 CNS = tested on: SF-295 CNS
SF-539 CNS = tested on: SF-539 CNS
SK-MEL-2 melanoma = tested on: SK-MEL-2 melanoma
SK-MEL-28 melanoma = tested on: SK-MEL-28 melanoma
SK-MEL-5 melanoma = tested on: SK-MEL-5 melanoma
SK-OV-3 ovarian = tested on: SK-OV-3 ovarian
SN12C renal = tested on: SN12C renal
SNB-19 CNS = tested on: SNB-19 CNS
SNB-75 CNS = tested on: SNB-75 CNS
SR leukemia = tested on: SR leukemia
SW-620 colon = tested on: SW-620 colon
T-47D breast = tested on: T-47D breast
TK-10 renal = tested on: TK-10 renal
U251 CNS = tested on: U251 CNS
UACC-257 melanoma = tested on: UACC-257 melanoma
UACC-62 melanoma = tested on: UACC-62 melanoma
UO-31 renal = tested on: UO-31 renal

Molecule `N/C(=N\N=C\c1c[nH]c2cc(C(F)(F)F)ccc2c1=O)NO` has a TGI (786-0 renal) of over 10 µM, a TGI (A498 renal) of over 10 µM and a TGI (A549 NSCLC) of over 10 µM. For the same molecule, the TGI (ACHN renal) was over 10 µM, the TGI (BT-549 breast) was over 10 µM and the TGI (CAKI-1 renal) was over 10 µM. It also gave a TGI (CCRF-CEM leukemia) of over 10 µM, a TGI (COLO 205 colon) of over 10 µM and a TGI (DU-145 prostate) of over 10 µM. For the same molecule, the TGI (EKVX NSCLC) was over 10 µM, the TGI (HCC-2998 colon) was over 10 µM and the TGI (HCT-116 colon) was over 10 µM. The TGI (HCT-15 colon) was over 10 µM, the TGI (HL-60(TB) leukemia) was over 10 µM and the TGI (HOP-62 NSCLC) was over 10 µM. It also gave a TGI (HOP-92 NSCLC) of over 10 µM, a TGI (HS 578T breast) of over 10 µM and a TGI (HT29 colon) of over 10 µM. For the same molecule, the TGI (IGROV1 ovarian) was over 10 µM, the TGI (K-562 leukemia) was over 10 µM and the TGI (KM12 colon) was over 10 µM. For the same molecule, the TGI (LOX IMVI melanoma) was over 10 µM, the TGI (M14 melanoma) was over 10 µM and the TGI (MALME-3M melanoma) was over 10 µM. The TGI (MCF7 breast) was over 10 µM, the TGI (MDA-MB-231 breast) was over 10 µM and the TGI (MDA-MB-435) was over 10 µM. It also gave a TGI (MDA-N) of over 10 µM, a TGI (MOLT-4 leukemia) of over 10 µM and a TGI (NCI-H226 lung) of over 10 µM. The TGI (NCI-H23 lung) was over 10 µM, the TGI (NCI-H460 lung) was over 10 µM and the TGI (NCI-H522 lung) was over 10 µM. For the same molecule, the TGI (NCI/ADR-RES ovarian) was over 10 µM, the TGI (OVCAR-3 ovarian) was over 10 µM and the TGI (OVCAR-4 ovarian) was over 10 µM. The TGI (OVCAR-5 ovarian) was over 10 µM, the TGI (OVCAR-8 ovarian) was over 10 µM and the TGI (PC-3 prostate) was over 10 µM. It also gave a TGI (RPMI-8226 leukemia) of over 10 µM, a TGI (RXF 393 renal) of over 10 µM and a TGI (SF-268 CNS) of over 10 µM. It also gave a TGI (SF-295 CNS) of over 10 µM, a TGI (SF-539 CNS) of over 10 µM and a TGI (SK-MEL-2 melanoma) of over 10 µM. The TGI (SK-MEL-28 melanoma) was over 10 µM, the TGI (SK-MEL-5 melanoma) was over 10 µM and the TGI (SK-OV-3 ovarian) was over 10 µM. It also gave a TGI (SN12C renal) of over 10 µM, a TGI (SNB-19 CNS) of over 10 µM and a TGI (SNB-75 CNS) of 9.03 µM. The TGI (SR leukemia) was over 10 µM, the TGI (SW-620 colon) was over 10 µM and the TGI (T-47D breast) was over 10 µM. It also gave a TGI (TK-10 renal) of over 10 µM, a TGI (U251 CNS) of over 10 µM and a TGI (UACC-257 melanoma) of over 10 µM. It also gave a TGI (UACC-62 melanoma) of over 10 µM and a TGI (UO-31 renal) of over 10 µM.
`Cn1cc(-c2cnc(-c3cn(C)c4ccccc34)cn2)c2ccccc21` was tested, and the TGI (786-0 renal) was 29.9 µM, the TGI (A498 renal) was over 41.4 µM and the TGI (A549 NSCLC) was over 100 µM. It also gave a TGI (ACHN renal) of over 94.6 µM, a TGI (BT-549 breast) of over 84.7 µM and a TGI (CAKI-1 renal) of over 100 µM. It also gave a TGI (CCRF-CEM leukemia) of 3.58 µM, a TGI (COLO 205 colon) of 15.6 µM and a TGI (DU-145 prostate) of over 58.5 µM. The TGI (EKVX NSCLC) was over 100 µM, the TGI (HCC-2998 colon) was 41.7 µM and the TGI (HCT-116 colon) was over 100 µM. For the same molecule, the TGI (HCT-15 colon) was 47.4 µM, the TGI (HL-60(TB) leukemia) was 8.66 µM and the TGI (HOP-62 NSCLC) was over 100 µM. The TGI (HOP-92 NSCLC) was over 100 µM, the TGI (HS 578T breast) was 33.5 µM and the TGI (HT29 colon) was 36.6 µM. It also gave a TGI (IGROV1 ovarian) of over 50.5 µM, a TGI (K-562 leukemia) of over 52.5 µM and a TGI (KM12 colon) of 14.8 µM. For the same molecule, the TGI (LOX IMVI melanoma) was 35.9 µM, the TGI (M14 melanoma) was 27.7 µM and the TGI (MALME-3M melanoma) was over 100 µM. For the same molecule, the TGI (MCF7 breast) was over 27.1 µM, the TGI (MDA-MB-231 breast) was over 96.6 µM and the TGI (MDA-MB-435) was 7.38 µM. The TGI (MDA-N) was 3.54 µM, the TGI (MOLT-4 leukemia) was over 100 µM and the TGI (NCI-H226 lung) was over 86.1 µM. For the same molecule, the TGI (NCI-H23 lung) was 37.6 µM, the TGI (NCI-H460 lung) was over 100 µM and the TGI (NCI-H522 lung) was 15.4 µM. For the same molecule, the TGI (NCI/ADR-RES ovarian) was 40.7 µM, the TGI (OVCAR-3 ovarian) was over 42.4 µM and the TGI (OVCAR-4 ovarian) was over 100 µM. For the same molecule, the TGI (OVCAR-5 ovarian) was over 100 µM, the TGI (OVCAR-8 ovarian) was 44.5 µM and the TGI (PC-3 prostate) was over 100 µM. The TGI (RPMI-8226 leukemia) was over 44.4 µM, the TGI (RXF 393 renal) was 24.7 µM and the TGI (SF-268 CNS) was over 87.5 µM. It also gave a TGI (SF-295 CNS) of 11.7 µM, a TGI (SF-539 CNS) of 10.4 µM and a TGI (SK-MEL-2 melanoma) of over 71.2 µM. It also gave a TGI (SK-MEL-28 melanoma) of over 79.2 µM, a TGI (SK-MEL-5 melanoma) of 25.3 µM and a TGI (SK-OV-3 ovarian) of over 100 µM. For the same molecule, the TGI (SN12C renal) was over 100 µM, the TGI (SNB-19 CNS) was over 100 µM and the TGI (SNB-75 CNS) was 25.7 µM. The TGI (SR leukemia) was over 100 µM, the TGI (SW-620 colon) was over 38.6 µM and the TGI (T-47D breast) was over 100 µM. The TGI (TK-10 renal) was over 100 µM, the TGI (U251 CNS) was 40.2 µM and the TGI (UACC-257 melanoma) was over 100 µM. The TGI (UACC-62 melanoma) was 31.3 µM and the TGI (UO-31 renal) was over 65 µM.

Source: PubChem BioAssay (NCI)
